The test system of series [1] is T. cruzi C4 β-galactosidase reporter parasite in MRC 5SV2 host cells. The note with it: cited from earlier work.
The next series concerns T. brucei brucei. The note with it: ref Pbox supporting information; read-out: T.b. brucei Pbox IC50; cited from earlier work.
A further series relates to T. brucei rhodesiense. The settings on record: ref Pbox supporting information; read-out: T .b. rohdensie Pbox IC50; cited from earlier work.
A further series deals with L. major. Also noted: method as in Pbox supporting information. The settings on record: ref Pbox supporting information; cited from earlier work.
Series [2] concerns L. infanium (macrophages). Details: method as in Pbox supporting information. The settings on record: ref Pbox supporting information; cited from earlier work.
For the next series, the system named is HepG2. The note with it: ref PBox supporting information, cited from earlier work.
For series [3], the system named is NF54-pfs16-LUC-GFP stage IV gametocytes. Kind of series: Plasmodium falciparum late stage gametocyte (LSG) image-based assay. The note with it: Plasmodium falciparum, NF54, read-out: Antiplasmodial IC50 (GAM / LSG), PBox compounds, stage IV gametocytes, single determination. In kind it is cell-based.
Series [4] deals with L. donovani axenic amastigotes. Also noted: method as in PBox supporting information. The settings on record: ref PBox supporting information; cited from earlier work.
Series [5] relates to L. donovani (macrophages). Details: method as in Pbox supporting information. The note with it: ref Pbox supporting information; cited from earlier work.
A further series deals with infected PMM. Details: method as in Pbox supporting information. The note with it: ref Pbox supporting information, read-out: Toxicity on infected PMM Pbox IC50; cited from earlier work.
The subject of series [6] is Plasmodium falciparum 3D7 asexual blood stage. Kind of series: microbe, parasite or virus in culture.
The subject of another series is HEK293 cells. Kind of series: HEK293 resazurin cell cytotoxicity assay. The settings on record: Homo sapiens.
For series [7], the system named is T. cruzi intracellular amastigotes. Kind of series: Intracellular anti-Trypanosoma cruzi image-based assay (amastigotes). In kind it is cell-based.
The subject of series [8] is T. b. brucei 427 bloodstream trypanosomes. The experiment in a line: T. b. brucei resazurin viability assay. The format is cell-based, Trypanosoma brucei brucei. The note with it: for IC50: Trypanosoma brucei.
The nature of series [9]: HEK293 resazurin cell cytotoxicity assay. The note with it: human.
Series [10] has as its system L. donovani MHOM/IN/80/DD8 intracellular amastigotes. Kind of series: Leishmania donovani intracellular amastigote assay in THP-1 cells. The settings on record: Leishmania donovani. The format is cell-based.
The subject of another series is P. falciparum ABS. The settings on record: ChEMBL Data, TCMDC set, P. falciparum; read-out: TCMDC (ref 93) EX50; cited from earlier work.
[11] abbreviates: ref Pbox supporting information, read-out: T. cruzi Pbox IC50.
Where [12] appears, read: 3D7, read-out: Antiplasmodial IC50 (ABS), PBox compounds, P. falciparum 3D7.
Where [13] appears, read: HEK293, read-out: HEK % Inhibition 20uM/IC50 Discovery Biology.
The mark [14] stands for this setting: Trypanosoma cruzi, 48 h, read-out: IC50 T. cruzi (Discovery Biology).
Where [15] appears, read: read-out: IC50 T. brucei brucei (Discovery Biology).
[16] abbreviates: read-out: T b.brucei Discovery Biology IC50.
Setting [17] is: Trypanosoma cruzi, intracellular amastigotes, read-out: T cruzi Discovery Biology IC50.

Where two headings read alike, the source gives them in different places.

With `O=C(CN1CCOCC1)Nc1ccc2ncnc(Nc3ccc(OCc4cccc(F)c4)c(Cl)c3)c2c1` [MMV688274], the IC50 in [1] (setting [11]) is 0.95 µM; with T. brucei brucei, 5.31 µM; in the series with T. brucei rhodesiense, 3.07 µM; with L. major, 12.4 µM; in [2] it was over 32 µM. In the series with HepG2, the “HepG2 PBox CC20” value was 10.9 µM.

Consider `FC(F)(F)c1cc(NCCc2ccccc2)nc(-c2ccccn2)n1` [MMV659010], for which the IC50 was 1.71 µM in [3]; 4.25 µM in series [1] (setting [11]); over 32 µM in the series with T. brucei brucei; 27.2 µM in the series with T. brucei rhodesiense; 0.25 µM in [4]; 16.2 µM in [2]. The IC50 in [5] is 5.17 µM; in the series with infected PMM it was 30 µM; in series [6] (setting [12]), over 8 µM; in the series with HEK293 cells (setting [13]), over 20 µM. For the same compound, in the series on HepG2, the “HepG2 PBox CC20” value was over 80 µM.

`Cc1nc(-c2ccccn2)nc(N(C)CCc2ccccc2)c1Cl` [MMV658988]: the IC50 is 0.3 µM in series [3]; under 1 µM in series [1] (7 days exposure, ref PBox supporting information, read-out: T. cruzi IC50 in the PBox supporting information file); 0.88 µM in series [1] (setting [11]); 14.9 µM in the series with T. brucei brucei; 11.8 µM in the series on T. brucei rhodesiense; 0.02 µM in [4]. Besides, the IC50 in series [2] was 4.06 µM; in series [5] it was 2.6 µM; with infected PMM, 16.7 µM; in [6] (setting [12]), 2.18 µM; in the series with HEK293 cells (setting [13]), over 20 µM. The “activity against T. cruzi at 8 μM in the Discovery Biology assay” value in [7] (8 μM) was “no activity”. The “HepG2 PBox CC20” value in the series with HepG2 was 11.3 µM.

In the case of `Nc1nc2ccc(-c3cncc(Oc4ccc(F)cc4)c3)cc2[nH]1` [MMV687248], the IC50 in series [7] (setting [14]) was found to be 4 µM; in series [8] (setting [15]), 1.05 µM; in series [6] (3D7, read-out: Pf 3D7 Discovery Biology IC50 µM, P. falciparum 3D7 asexual blood stage, Discovery Biology), 1.52 µM. For the same compound, the “selectivity index (SI) T. brucei brucei versus HEK293” value in series [8] (HEK293) is over 20. The “selectivity index (SI) T. brucei brucei versus HEPG2” value in [8] (HEPG2 (PBox data)) is reported as over 20. Moreover, in the series with HepG2 (read-out: HepG2 PBox CC50 µM, HepG2 cytotoxicity), the cytotoxic concentration (CC50) is 31.5 µM. The selectivity ratio at 72 h in series [9] was over 5.

With `c1ccc(-c2nc(NC3CCCCC3)cc(C3CC3)n2)nc1` [MMV021013], the IC50 came to 0.19 µM in series [3]; 1.67 µM in [7] (setting [14]); 3.51 µM in series [8] (setting [15]); 1.48 µM in [10] (THP-1, read-out: IC50 L. donovani (Discovery Biology), PBox compounds, intracellular amastigotes); 0.46 µM in series [6] (setting [12]). Further, the EC50 in the series with P. falciparum ABS was 0.73 µM. For the same compound, in [9], the selectivity ratio at 72 h is over 5. In addition, the inhibition at 20 µM with HEK293 cells (setting [13]) was determined as 83%.

As to `CN1CCN(S(=O)(=O)c2ccc(-c3ccc4c(Nc5ncc(Cl)cn5)ccnc4c3)cc2)CC1` [MMV688283], the IC50 in series [3] was 4.1 µM; in series [8] (setting [16]), 5.29 µM; in [1] (setting [11]), 3.81 µM; with T. brucei brucei it was 3.78 µM; with T. brucei rhodesiense, 0.96 µM; in the series with L. major, 8.51 µM. The IC50 is 2.54 µM in series [2], 0.66 µM in [6] (setting [12]) and over 20 µM with HEK293 cells (setting [13]). Further, the “HepG2 PBox CC20” value with HepG2 is 8.0 µM.

Regarding `CC(C)(C)OC(=O)N1CCN(c2cc(-c3ccc(Oc4ccccc4)cc3)n[nH]2)CC1` [MMV676057], the IC50 in series [1] (setting [11]) is 9.37 µM; with T. brucei brucei, 3.89 µM; in the series with T. brucei rhodesiense it was 2.7 µM; in series [4], 1.32 µM; with L. major it was 13 µM; in series [2], 10.2 µM. Further, the IC50 was over 10 µM in series [5] and 20 µM in the series on infected PMM. The “HepG2 PBox CC20” value in the series with HepG2 is 4.0 µM.

As for `COc1ccc(C(=N)N)cc1-c1cn(-c2ccc(C(=N)N)cc2)nn1` [MMV675998], the IC50 is 0.27 µM in [8] (setting [16]); 21.5 µM in series [1] (setting [11]); 0.25 µM in the series with T. brucei brucei; under 0.13 µM in the series on T. brucei rhodesiense; 14.3 µM in series [4]; over 32 µM in series [2]. For the same compound, the figures for the IC50 (in series [5]; with infected PMM; in the series with HEK293 cells (setting [13])) were over 30 µM, 30 µM and over 20 µM, respectively. In addition, in the series with HepG2, the “HepG2 PBox CC20” value is 5.5 µM.

Take `COC(=O)c1cccc2oc(-c3cccc(OC)c3NC(=O)c3cc(-c4ccccc4)on3)nc12` [MMV676186]: the IC50 was over 32 µM in series [1] (setting [11]); over 32 µM with T. brucei brucei; over 32 µM with T. brucei rhodesiense; 3.95 µM in [4]; over 32 µM in [2]; over 30 µM in series [5]. Besides, the IC50 in the series with infected PMM is over 30 µM. For the same compound, the “HepG2 PBox CC20” value with HepG2 is over 80 µM.

On to `c1ccc(Oc2ccc(-c3cc(CN4CCOCC4)[nH]n3)cc2)cc1` [MMV676161], for which the IC50 in series [1] (setting [11]) was 16 µM; with T. brucei brucei it was 15.1 µM; with T. brucei rhodesiense, 5.26 µM; in series [4], 9.7 µM; in series [2] it was over 32 µM; in series [5], 26.1 µM. Moreover, in the series on infected PMM, the IC50 is 30 µM. Further, the “HepG2 PBox CC20” value with HepG2 is 28.9 µM.

With `Cc1ncc(-c2ccnc(Nc3ccc(S(C)(=O)=O)cc3)n2)n1C(C)C` [MMV676604], the IC50 in series [7] (setting [17]) was 1.18 µM; in series [8] (setting [16]), 0.14 µM; in series [10] (THP-1, intracellular amastigotes, some values marked *, read-out: L, donovani Discovery Biology IC50) it was 4.82 µM; in [1] (setting [11]), 1.08 µM; in the series on T. brucei brucei it was 0.26 µM; in the series on T. brucei rhodesiense, under 0.13 µM. The IC50 in the series on L. major was 3.15 µM; in [2] it was 1.15 µM; in series [6] (3D7, read-out: Pf 3D7 Discovery Biology IC50, P. falciparum 3D7 asexual blood stage), 3.23 µM; in the series with HEK293 cells (HEK293, read-out: HEK % Discovery Biology IC50), 2.7 µM. Moreover, in the series on HepG2, the “HepG2 PBox CC20” value is 0.179 µM.

`Cc1nc(-c2ccccn2)nc(N2CCC(Cc3ccccc3)C2)c1Cl` (stereo not drawn) [MMV659004]: the IC50 in series [3] is 0.67 µM; in series [1] (setting [11]), 0.97 µM; in the series with T. brucei brucei, 6.61 µM; with T. brucei rhodesiense it was 5.62 µM; in [4], 0.03 µM; in the series with L. major it was 8.96 µM. Also, the IC50 in series [2] is 4.03 µM; in [5] it was 4.2 µM; in the series on infected PMM, 16.7 µM; in series [6] (setting [12]), 1.86 µM; in the series with HEK293 cells (setting [13]) it was over 20 µM. Moreover, in the series on HepG2, the “HepG2 PBox CC20” value was 10.2 µM.

Turning to `Clc1ccc(Cl)c(CO[C@H]2CCCC[C@@H]2n2ccnc2)c1` [MMV676048], the Emax in [7] (Trypanosoma cruzi, PBox kinetoplastid set compounds active against T. cruzi alone, read-out: Emax against T. cruzi (subefficacious effect)) was under 100%. In addition, the IC50 in series [7] (setting [17]) was 3.21 µM; in [1] (setting [11]) it was 1.36 µM; in the series with T. brucei brucei, over 32 µM; with T. brucei rhodesiense it was 22.9 µM; in series [4], 15.6 µM; in series [2], 16.2 µM. Moreover, the IC50 in [5] was 12.8 µM; in the series with infected PMM, 30 µM; in the series on HEK293 cells (setting [13]) it was over 20 µM. In addition, in the series with HepG2, the “HepG2 PBox CC20” value is 37.1 µM.

`Nc1ccc2ncnc(Nc3ccc(OCc4cccc(F)c4)c(Cl)c3)c2c1` [MMV688273]: the IC50 in series [1] (setting [11]) was 4.03 µM; in the series with T. brucei brucei, over 32 µM; with T. brucei rhodesiense, 13.1 µM; in the series on L. major, 10.4 µM; in [2], over 32 µM. For the same compound, in the series on HepG2, the “HepG2 PBox CC20” value is 9.7 µM.

Turning to `Clc1cccc(CO[C@H]2CCc3ccccc3[C@@H]2n2ccnn2)c1` [MMV676159], the IC50 in series [1] (setting [11]) is 3.08 µM; in the series with T. brucei brucei it was over 32 µM; in the series on T. brucei rhodesiense, over 32 µM; in series [4], 6.6 µM; in [2], over 32 µM; in series [5], over 30 µM. Further, in the series on infected PMM, the IC50 was over 30 µM. The “HepG2 PBox CC20” value in the series on HepG2 was over 80 µM.

The values above are taken from PMC5571359, “Screening the Medicines for Malaria Venture Pathogen Box across Multiple Pathogens Reclassifies Starting Points for Open-Source Drug Discovery” (Antimicrobial Agents and Chemotherapy, 2017).
